Tested on: type 1 diabetes patients with peripheral neuropathy
Details: in vivo

## CC(C)C[C@H](NC(=O)[C@H](C)NC(=O)[C@H](CC(C)C)NC(=O)[C@@H]1CCCN1C(=O)[C@H](CCC(N)=O)NC(=O)[C@H](CC(C)C)NC(=O)[C@H](CO)NC(=O)CNC(=O)[C@H](C)NC(=O)CNC(=O)[C@@H]1CCCN1C(=O)CNC(=O)CNC(=O)CNC(=O)[C@H](CC(C)C)NC(=O)[C@H](CCC(=O)O)NC(=O)[C@@H](NC(=O)[C@H](CCC(N)=O)NC(=O)CNC(=O)[C@@H](NC(=O)[C@H](CCC(N)=O)NC(=O)[C@H](CC(C)C)NC(=O)[C@H](CC(=O)O)NC(=O)[C@H](CCC(=O)O)NC(=O)[C@H](C)NC(=O)[C@@H](N)CCC(=O)O)C(C)C)C(C)C)C(=O)N[C@@H](CCC(=O)O)C(=O)NCC(=O)N[C@@H](CO)C(=O)N[C@@H](CC(C)C)C(=O)N[C@@H](CCC(N)=O)C(=O)O [C-peptide, Recombinant human C-peptide]
  AEs of any severity: Abdominal pain: 3
  AEs of any severity: Allergic urticaria: 1
  AEs of any severity: Anemia: 1
  AEs of any severity: Aptyalism: 1
  AEs of any severity: Arterial disorder: 1
  AEs of any severity: Arthralgia: 3
  AEs of any severity: Arthritis: 1
  AEs of any severity: Asthma: 1
  AEs of any severity: Back pain: 2
  AEs of any severity: Blister: 2
  AEs of any severity: Bronchitis: 1
  AEs of any severity: Burning sensation: 1
  AEs of any severity: Candidiasis: 2
  AEs of any severity: Cardiac arrhythmia: 1
  AEs of any severity: Cardiac murmur: 1
  AEs of any severity: Carpal tunnel syndrome: 1
  AEs of any severity: Celiac disease: 1
  AEs of any severity: Chest pain: 2
  AEs of any severity: Cough: 1
  AEs of any severity: Dacryocanaliculitis: 1
  AEs of any severity: Depression: 1
  AEs of any severity: Dermatitis allergic: 1
  AEs of any severity: Dry skin: 1
  AEs of any severity: Epicondylitis: 1
  AEs of any severity: Epistaxis: 1
  AEs of any severity: Exostosis: 2
  AEs of any severity: Eye injury: 1
  AEs of any severity: Eye operation: 1
  AEs of any severity: Fatigue: 2
  AEs of any severity: Feeling abnormal: 3
  AEs of any severity: Fibroma: 1
  AEs of any severity: Flatulence: 1
  AEs of any severity: Food poisoning: 1
  AEs of any severity: Gastritis: 1
  AEs of any severity: Hematuria: 1
  AEs of any severity: Hemorrhage: 1
  AEs of any severity: Hepatic enzyme increase: 2
  AEs of any severity: Hyperaesthesia: 1 (1)
  AEs of any severity: Hypercalcemia: 1
  AEs of any severity: Hyperlipidemia: 1
  AEs of any severity: Hypertension: 1
  AEs of any severity: Hyperthermeasthesia: 2 (2)
  AEs of any severity: Hypoaesthesia: 2
  AEs of any severity: Hypoglycemic coma: 2
  AEs of any severity: Hypotension: 1
  AEs of any severity: Injection site burning: 1 (1)
  AEs of any severity: Joint sprain ankle: 1
  AEs of any severity: Knee injury: 1
  AEs of any severity: Leucopenia: 1
  AEs of any severity: Limb operation: 1
  AEs of any severity: Lymph node enlargement: 1
  AEs of any severity: Macular edema: 1
  AEs of any severity: Menopausal disorder: 1
  AEs of any severity: Menstration irregular: 1
  AEs of any severity: Migraine: 1
  AEs of any severity: Multiple sclerosis: 1
  AEs of any severity: Muscle cramp: 1
  AEs of any severity: Muscle spasm: 1
  AEs of any severity: Muscular atrophy: 1
  AEs of any severity: Musculoskeletal chest: 1
  AEs of any severity: Nasopharyngitis: 23
  AEs of any severity: Otitis: 2
  AEs of any severity: Pain in neck: 1
  AEs of any severity: Pain in shoulder: 1
  AEs of any severity: Panic disorder: 1
  AEs of any severity: Pharyngitis: 2
  AEs of any severity: Pregnancy: 2
  AEs of any severity: Pyrexia: 3
  AEs of any severity: Reflux gastritis: 2
  AEs of any severity: Restless legs syndrome: 1
  AEs of any severity: Rheumarthritis: 1
  AEs of any severity: Rib fracture/injury: 2
  AEs of any severity: ST elevation (ECG): 1
  AEs of any severity: Scar: 1
  AEs of any severity: Sciatica: 1
  AEs of any severity: Season allergy: 1
  AEs of any severity: Sensory loss: 1
  AEs of any severity: Sepsis: 1
  AEs of any severity: Sinusitis: 2
  AEs of any severity: Skin infection: 1
  AEs of any severity: Stress disorder: 1
  AEs of any severity: Sweating increased: 1
  AEs of any severity: Synovial disorder: 1
  AEs of any severity: Tachycardia (stress): 1
  AEs of any severity: Tendinitis: 1
  AEs of any severity: Tendinous contracture: 1
  AEs of any severity: Tendosynovitis stenosans: 1
  AEs of any severity: Tonsilitis: 2
  AEs of any severity: Tooth extraction: 1
  AEs of any severity: Tooth infection: 2
  AEs of any severity: Tooth injury: 1
  AEs of any severity: Torticollis: 1
  AEs of any severity: Upper respiratory tract infection: 1
  AEs of any severity: Vertigo: 1
  AEs of any severity: Vision decreased: 1
  AEs of any severity: Vitamin B12 deficiency: 1
  AEs of any severity: Vitreous hemorrhage: 1
  AEs of moderate intensity (M): Abdomnial pain: M (1)
  AEs of moderate intensity (M): Arthralgia: M (1)
  AEs of moderate intensity (M): Arthritis: M (1)
  AEs of moderate intensity (M): Arthropathy: M (1)
  AEs of moderate intensity (M): Back pain: M (1)
  AEs of moderate intensity (M): Bronchitis: M (1)
  AEs of moderate intensity (M): Carpal tunnel syndrome: M (1)
  AEs of moderate intensity (M): Celiac disease: M (1)
  AEs of moderate intensity (M): Dacryocanaliculitis: M (1)
  AEs of moderate intensity (M): Depression: M (1)
  AEs of moderate intensity (M): Dizziness: M (1)
  AEs of moderate intensity (M): Epicondylitis: M (1)
  AEs of moderate intensity (M): Fatigue: M (1)
  AEs of moderate intensity (M): Feeling abnormal: M (3)
  AEs of moderate intensity (M): Gastritis: M (1)
  AEs of moderate intensity (M): Gastroenteritis: M (3)
  AEs of moderate intensity (M): Hyperlipidemia: M (1)
  AEs of moderate intensity (M): Hypoglycemic coma: M (1)
  AEs of moderate intensity (M): Hypotension: M (1)
  AEs of moderate intensity (M): Knee injury: M (1)
  AEs of moderate intensity (M): Limb operation: M (1)
  AEs of moderate intensity (M): Migraine: M (1)
  AEs of moderate intensity (M): Muscle cramp: M (1)
  AEs of moderate intensity (M): Myalgia: M (2)
  AEs of moderate intensity (M): Nausea: M (1)
  AEs of moderate intensity (M): Otitis: M (1)
  AEs of moderate intensity (M): Pain in extremity: M (2)
  AEs of moderate intensity (M): Paraesthesia: M (1)
  AEs of moderate intensity (M): Pharyngitis: M (1)
  AEs of moderate intensity (M): Pyrexia: M (1)
  AEs of moderate intensity (M): Restless legs syndrome: M (1)
  AEs of moderate intensity (M): Rib fracture/injury: M (1); S (1)
  AEs of moderate intensity (M): ST elevation (ECG): M (1)
  AEs of moderate intensity (M): Sciatica: M (1)
  AEs of moderate intensity (M): Stress disorder: M (1)
  AEs of moderate intensity (M): Tendinous: M (1)
  AEs of moderate intensity (M): Tonsillitis: M (1)
  AEs of moderate intensity (M): Vision decreased: M (1)
  AEs of moderate intensity (M): Vitreous hemorrhage: M (1)
  AEs of severe intensity (S): Diarrhea: S (1)
  AEs of severe intensity (S): Hepatic enzyme increase: S (1)
  AEs of severe intensity (S): Hyperglycemia: S (1)
  AEs of severe intensity (S): Hypoglycemia: M (1); S (1)
  AEs of severe intensity (S): Hypoglycemic coma: S (2)
  AEs of severe intensity (S): Pharyngitis: S (1)
  AEs of severe intensity (S): Pregnancy: S (1)
  AEs of severe intensity (S): Rib fracture/injury: M (1); S (1)
  AEs possibly related to study drug: Hepatic enzyme increase: 1
  AEs possibly related to study drug: Hyperaesthesia: 1 (1)
  AEs possibly related to study drug: Hyperglycemia: 1 (1)
  AEs possibly related to study drug: Hyperthermeasthesia: 2 (2)
  AEs possibly related to study drug: Hypoglycemia: 1
  AEs possibly related to study drug: Injection site burning: 1 (1)
  AEs possibly related to study drug: Pain in extremity: 1
  Adverse drug reactions or significant changes in safety variables: no adverse drug reactions
  Number of AEs probably/possibly related to study drug: Hyperglycemia: 1 (1)
  Number of AEs probably/possibly related to study drug: Hypoglycemia: 1
  Number of AEs: Blood glucose fluctuation: 0
  Number of AEs: Hypoglycemic coma: 2
  Number of AEs: Hypothyroidism: 0
  Number of AEs: Increased appetite: 0
  Occurrences of hypoglycemic coma: 4
  Serious adverse events (SAEs): Two SAEs
  Tolerability: well tolerated
sc
  Local reactions: No local reactions

— patent publication US8410049B2, “Methods and kits for preventing hypoglycemia” (Cebix, priority 2009, dated 2013)
